The record followed here is patent US20070281922A1, “1-Sulfonylindazolylamine and - amide derivatives as 5-hydroxytryptamine-6 ligands” (Wyeth, priority 2006, published 2007).

Counter-ions that a name gives are not always drawn.

In general, Ki refers to a measure of affinity in units of concentration, obtained from inhibition or displacement. Low readings indicate higher affinity, high ones lower affinity.

T1 sequence (P50406 whole entry): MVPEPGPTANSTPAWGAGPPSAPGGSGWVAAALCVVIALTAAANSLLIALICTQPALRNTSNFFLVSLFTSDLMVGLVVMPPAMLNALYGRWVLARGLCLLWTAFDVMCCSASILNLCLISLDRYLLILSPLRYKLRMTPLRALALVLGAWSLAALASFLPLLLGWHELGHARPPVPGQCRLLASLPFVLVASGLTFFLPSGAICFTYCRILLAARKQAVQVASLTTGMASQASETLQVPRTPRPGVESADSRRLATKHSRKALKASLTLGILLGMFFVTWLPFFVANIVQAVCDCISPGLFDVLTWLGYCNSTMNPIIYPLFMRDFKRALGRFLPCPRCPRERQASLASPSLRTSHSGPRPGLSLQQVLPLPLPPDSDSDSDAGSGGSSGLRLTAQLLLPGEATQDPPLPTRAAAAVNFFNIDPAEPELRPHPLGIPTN

This experiment has as its target T1, human cloned 5-HT6 receptors (Homo sapiens, UniProt P50406).
T1 construct: expressed in transfected cells; host or cells: HeLa cells
Description: 5-HT6 binding affinity, [3H]-LSD displacement on membranes of Hela cells expressing human cloned 5-HT6 receptors. Conditions: [3H]-LSD 3.0 nM, Hela cell membranes, 120 minutes at room temperature. The protocol: The affinity of test compounds for the serotonin 5-HT6 receptor was evaluated in the following manner. Cultured Hela cells expressing human cloned 5-HT6 receptors were harvested and centrifuged at low speed (1,000×g) for 10.0 minutes to remove the culture media. The harvested cells were suspended in half volume of fresh physiological phosphate buffered saline solution and recentrifuged at the same speed. This operation was repeated. The collected cells were then homogenized in ten volumes of 50 mM Tris.HCl (pH 7.4) and 0.5 mM EDTA. The homogenate was centrifuged at 40,000×g for 30.0 min and the precipitate was collected. The obtained pellet was resuspended in 10 volumes of Tris.HCl buffer and recentrifuged at the same speed. The final pellet was suspended in a small volume of Tris.HCl buffer and the tissue protein content was determined in aliquots of 10-25 μl volumes. Bovine Serum Albumin was used as the standard in the protein determination according to the method described in Lowry et al., J. Biol. Chem., 193: 265 (1951).
The volume of the suspended cell membranes was adjusted to give a tissue protein concentration of 1.0 mg/ml of suspension. The prepared membrane suspension (10 times concentrated) was aliquoted in 1.0 ml volumes and stored at −70° C. until used in subsequent binding experiments.
Binding experiments were performed in a 96 well microtiter plate format, in a total volume of 200 μl. […] The test compounds were added in 20.0 μl volume.
The reaction was allowed to proceed in the dark for 120 minutes at room temperature, at which time, the bound ligand-receptor complex was filtered off on a 96 well unifilter with a Packard Filtermate® 196 Harvester. The bound complex caught on the filter disk was allowed to air dry and the radioactivity is measured in a Packard TopCount® equipped with six photomultiplier detectors, after the addition of 40.0 μl Microscint®-20 scintillant to each shallow well. The unifilter plate was heat-sealed and counted in a PackardTopCount® with a tritium efficiency of 31.0%.
Binding in the presence of varying concentrations of test compound was expressed as a percentage of specific binding in the absence of test compound. The results were plotted as log % bound versus log concentration of test compound. […] A linear regression line of data points was plotted, from which the IC50 value is determined and the Ki value is determined based upon the following equation: […]
where L was the concentration of the radioactive ligand used and KD is the dissociation constant of the ligand for the receptor, both expressed in nM.
In the case of `O=C(Nc1ccc2cnn(S(=O)(=O)c3cccc4ccccc34)c2c1)C1CCCNC1` (stereo not shown) [Example 9], the affinity corresponds to a Ki of 3.4 nM.

`CCN(CC)CCC(=O)Nc1ccc2cnn(S(=O)(=O)c3cccc4ccccc34)c2c1` [Example 11] came in with a Ki of 2.1 nM.

Consider `CNCCC(=O)Nc1ccc2cnn(S(=O)(=O)c3cccc4ccccc34)c2c1` [Example 7], for which the Ki worked out at 1.2 nM.

In turn, `NCCC(=O)Nc1ccc2cnn(S(=O)(=O)c3cccc4ccccc34)c2c1` [Example 4, N^1-[1-(1-naphthylsulfonyl-1-H-indazol-6-yl]beta-alaninamide Hydrochloride] yielded a Ki of 0.5 nM.

On to `NCCC(=O)Nc1cccc2c1cnn2S(=O)(=O)c1cccc2ccccc12` [Example 5], for which the Ki is 7.9 nM.

For the compound `O=C(CCN1CCCCC1)Nc1ccc2cnn(S(=O)(=O)c3cccc4ccccc34)c2c1` [Example 12], the Ki came to 15 nM.

For `NCCC(=O)Nc1ccc2c(cnn2S(=O)(=O)c2cccc3ccccc23)c1` [Example 6], the Ki was 49.5 nM.

In the case of `O=C(Nc1ccc2cnn(S(=O)(=O)c3cccc4ccccc34)c2c1)C1CCNCC1` [Example 8], the Ki is 2.3 nM.

`CN(C)CCC(=O)Nc1ccc2cnn(S(=O)(=O)c3cccc4ccccc34)c2c1` [Example 10] yielded a Ki of 1.8 nM.

Compound `O=S(=O)(c1cccc2ccccc12)n1ncc2ccc(NCC3CCNCC3)cc21` [Example 14, [1-(Naphthalene-1-sulfonyl)-1H-indazol-6-yl]-piperidin-4-ylmethyl-amine dihydrochloride] had a Ki of 18.4 nM.
